Consider 13 compounds from US20240228512A1, “ACYCLIC OXAZEPINE COMPOUNDS COMPRISING A 6-AZA MOIETY AND USES THEREOF” (Genentech, Inc., priority 2022, published 2024).

One assay deals with HPAC cells. In words: HPAC 3D proliferation assay (CellTiter-Glo). It is filed as cell-based. To be noted: Homo sapiens, 168 h, 3D culture, 7 days, read-out: HPAC CTG IC50. An outline of the steps: (§1)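 IC50 values were fitted with a 4-parameter logistic to luminescent ATP signal (CellTiter-Glo 3D) after 7-day compound exposure. Seeding was 3000 (96-well) or 1000 (384-well) cells/well in low-attachment plates with RPMI-1640, 10% FBS, 2 mM L-glutamine.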
(In general: Cellular ATP, detected with luciferase, serves as a proxy for viable cell number.)

The test system of the next assay is SW480 cells. Put plainly: SW480 CTG proliferation assay. The following applies: Homo sapiens. It is filed as cell-based.
In the next assay the test system is SW620 cells. In words: SW620 3D proliferation assay (CellTiter-Glo). It is filed as cell-based. To be noted: Homo sapiens, SW-620, 168 h, SW620, 3D culture, 7 days, read-out: SW620 CTG IC50. An outline of the steps:
as §1

Another assay deals with H1975 cells. In words: H1975 CTG proliferation assay. The assay is classed as cell-based. To be noted: Homo sapiens, NCI-H1975, H1975, CTG.
The next assay relates to SW620 PERK. Put plainly: SW620 PERK assay. The following applies: Homo sapiens, SW-620, SW620, PERK. The assay is classed as cell-based.
Assay [1] has as its target recombinant human KRAS wild type (SOS1-mediated nucleotide exchange) (Homo sapiens (Human), UniProt P01116). In words: KRAS biochemical assay, BODIPY-GDP exchange TR-FRET (WT-GDP HTRF). A general note: Time-resolved FRET reads energy transfer from a long-lived donor to a nearby acceptor.
The target in assay [2] is recombinant human mutant KRas G12V (SOS1-mediated nucleotide exchange) (Homo sapiens (Human), UniProt P01116, G12V). Put plainly: KRAS biochemical assay, BODIPY-GDP exchange TR-FRET (G12V-GDP HTRF).
Chain of recombinant human mutant KRas G12V (SOS1-mediated nucleotide exchange) (P01116-2 other isoform, or with tags, fused parts or gaps G12V): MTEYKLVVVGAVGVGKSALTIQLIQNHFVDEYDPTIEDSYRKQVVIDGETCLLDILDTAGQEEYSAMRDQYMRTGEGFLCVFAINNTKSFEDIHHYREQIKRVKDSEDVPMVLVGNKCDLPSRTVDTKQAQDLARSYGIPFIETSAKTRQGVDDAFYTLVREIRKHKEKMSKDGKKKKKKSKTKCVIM

Chain of recombinant human KRAS wild type (SOS1-mediated nucleotide exchange) (P01116-2 other isoform, or with tags, fused parts or gaps): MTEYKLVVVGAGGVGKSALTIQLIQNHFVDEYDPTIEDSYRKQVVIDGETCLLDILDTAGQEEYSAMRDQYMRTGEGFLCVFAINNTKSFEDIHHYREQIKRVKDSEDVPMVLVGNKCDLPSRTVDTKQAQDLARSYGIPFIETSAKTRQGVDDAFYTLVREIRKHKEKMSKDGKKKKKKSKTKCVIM

What is called IC50 is the concentration at which inhibition is half-maximal. Consider `C#Cc1cccc2cc(O)cc(-c3nc4c5c(nc(OCC67CCN6CC(F)(F)C7)nc5c3F)N([C@H](C)c3cccnc3N)CCO4)c12` (stereo partly drawn) [Example 1, 4-(10-((R)-1-(2-aminopyridin-3-yl)ethyl)-2-((3,3-difluoro-1-azabicyclo[3.2.0]heptan-5-yl)methoxy)-4-fluoro-9,10-dihydro-8H-7-oxa-1,3,6,10-tetraazacyclohepta[de]naphthalen-5-yl)-5-ethynyinaphthalen-2-ol], for which the IC50 turned out to be 144 nM with HPAC cells; 26 nM with SW480 cells; 7 nM in the assay with SW620 cells; 47.4 nM in the assay with H1975 cells; 1.42 nM in the assay on SW620 PERK.
On the same counts, the results for `C#Cc1cccc2cc(N)cc(-c3nc4c5c(nc(OC[C@@]67CCCN6C[C@H](F)C7)nc5c3F)N([C@H](C)c3cccnc3N)CCO4)c12` [Example 4, 3-((R)-1-(5-(3-amino-8-ethynyinaphthalen-1-yl)-4-fluoro-2-(((2R,7aS)-2-fluorotetrahydro-1H-pyrrolizin-7a(5H)-yl)methoxy)-8,9-dihydro-10H-7-oxa-1,3,6,10-tetraazacyclohepta[de]naphthalen-10-yl)ethyl)pyridin-2-amine] are 5.72 nM, 2.4 nM, 1.26 nM, 2.59 nM and 1.07 nM.
The like results for `Cc1c(F)c(N)c(F)c(-c2nc3c4c(nc(OC[C@@]56CCCN5C[C@H](F)C6)nc4c2F)N([C@H](C)c2cccnc2N)CCO3)c1C(F)(F)F` [Example 12, 3-((1R)-1-(5-(3-amino-2,4-difluoro-5-methyl-6-(trifluoromethyl)phenyl)-4-fluoro-2-(((2R,7aS)-2-fluorotetrahydro-1H-pyrrolizin-7a(5H)-yl)methoxy)-8,9-dihydro-10H-7-oxa-1,3,6,10-tetraazacyclohepta[de]naphthalen-10-yl)ethyl)pyridin-2-amine] were, in that order, 14.7 nM, 2.8 nM, 5.63 nM, 59.4 nM and 1.62 nM.
On the same counts, the results for `Cc1cc(N)c(F)c(-c2nc3c4c(nc(OC[C@@]56CCCN5C[C@H](F)C6)nc4c2F)N([C@H](C)c2cccnc2N)CCO3)c1C(F)(F)F` [Example 15, 3-((1R)-1-(5-(3-amino-2-fluoro-5-methyl-6-(trifluoromethyl)phenyl)-4-fluoro-2-(((2R,7aS)-2-fluorotetrahydro-1H-pyrrolizin-7a(5H)-yl)methoxy)-8,9-dihydro-10H-7-oxa-1,3,6,10-tetraazacyclohepta[de]naphthalen-10-yl)ethyl)pyridin-2-amine] are 8.84 nM, 10 nM, 0.74 nM, 2.59 nM and 2.24 nM.
In the case of `Cc1c(F)c(N)cc(-c2nc3c4c(nc(OC[C@@H]5CC[C@H]6COCCN65)nc4c2F)N([C@H](C)c2cccnc2N)CCO3)c1C(F)(F)F` [Example 16, 3-((R)-1-(5-(5-amino-4-fluoro-3-methyl-2-(trifluoromethyl)phenyl)-4-fluoro-2-(((6S,8aS)-hexahydro-1H-pyrrolo[2,1-c][1,4]oxazin-6-yl)methoxy)-8,9-dihydro-10H-7-oxa-1,3,6,10-tetraazacyclohepta[de]naphthalen-10-yl)ethyl)pyridin-2-amine], the IC50 with HPAC cells came to 30.2 nM; in the assay with SW480 cells, 10 nM; in the assay on SW620 cells, 3.77 nM; in the assay with H1975 cells, 31.1 nM; in the assay with SW620 PERK it was 2.53 nM.
The like results for `C#Cc1cccc2cc(O)cc(-c3nc4c5c(nc(OC[C@@H]6CC[C@H]7COCCN76)nc5c3F)N([C@H](C)c3cccnc3N)CCO4)c12` [Example 17, 4-(10-((R)-1-(2-aminopyridin-3-yl)ethyl)-4-fluoro-2-(((6S,8aS)-hexahydro-1H-pyrrolo[2,1-c][1,4]oxazin-6-yl)methoxy)-9,10-dihydro-8H-7-oxa-1,3,6,10-tetraazacyclohepta[de]naphthalen-5-yl)-5-ethynyinaphthalen-2-ol] were, in that order, 228 nM, 110 nM, 13.7 nM, 9.15 nM and 4.33 nM.
The like results for `Cc1cc(N)c(F)c(-c2nc3c4c(nc(OC[C@@H]5CC[C@H]6COCCN65)nc4c2F)N([C@H](C)c2cccnc2N)CCO3)c1C(F)(F)F` [Example 22, 3-((1R)-1-(5-(3-amino-2-fluoro-5-methyl-6-(trifluoromethyl)phenyl)-4-fluoro-2-(((6S,8aS)-hexahydro-1H-pyrrolo[2,1-c][1,4]oxazin-6-yl)methoxy)-8,9-dihydro-10H-7-oxa-1,3,6,10-tetraazacyclohepta[de]naphthalen-10-yl)ethyl)pyridin-2-amine] were, in that order, 67 nM, 24 nM, 6.45 nM, 48.7 nM and 6.32 nM.
On the same counts, the results for `C[C@H](c1cccnc1N)N1CCOc2nc(-c3cccc4sc(N)nc34)c(F)c3nc(OC[C@@]45CCCN4C[C@H](F)C5)nc1c23` [Example 24, 4-(10-((R)-1-(2-aminopyridin-3-yl)ethyl)-4-fluoro-2-(((2R,7aS)-2-fluorotetrahydro-1H-pyrrolizin-7a(5H)-yl)methoxy)-9,10-dihydro-8H-7-oxa-1,3,6,10-tetraazacyclohepta[de]naphthalen-5-yl)benzo[d]thiazol-2-amine] are 2000 nM, 700 nM, 1020 nM, 5170 nM and 466 nM.
Take `CCc1cccc2cc(O)cc(-c3nc4c5c(nc(OC[C@@]67CCCN6C[C@H](F)C7)nc5c3F)N([C@H](C)c3cccnc3N)CCO4)c12` [Example 27, 4-(10-((R)-1-(2-aminopyridin-3-yl)ethyl)-4-fluoro-2-(((2R,7aS)-2-fluorotetrahydro-1H-pyrrolizin-7a(5H)-yl)methoxy)-9,10-dihydro-8H-7-oxa-1,3,6,10-tetraazacyclohepta[de]naphthalen-5-yl)-5-ethylnaphthalen-2-ol]: the IC50 in the assay on HPAC cells was 55.2 nM; with SW480 cells, 31 nM; in the assay with SW620 cells, 1.68 nM; in the assay on H1975 cells, 2.59 nM.
With `Cc1c(F)c(N)nc(-c2nc3c4c(nc(OC[C@@]56CCCN5C[C@H](F)C6)nc4c2F)N([C@H](C)c2nccnc2N)CCO3)c1C(F)(F)F` [Example 630, 3-((R)-1-(5-(6-amino-5-fluoro-4-methyl-3-(trifluoromethyl)pyridin-2-yl)-4-fluoro-2-(((2R,7aS)-2-fluorotetrahydro-1H-pyrrolizin-7a(5H)-yl)methoxy)-8,9-dihydro-10H-7-oxa-1,3,6,10-tetraazacyclohepta[de]naphthalen-10-yl)ethyl)pyrazin-2-amine], the IC50 was determined as 208 nM with HPAC cells; 2 nM in assay [1]; 0.32 nM in assay [2]; 28.8 nM with SW620 cells; 134 nM with H1975 cells; 21.2 nM in the assay on SW620 PERK.
For the compound `Cc1c(F)c(N)nc(-c2nc3c4c(nc(OC[C@@]56CCCN5C[C@H](F)C6)nc4c2F)N([C@H](C)c2cc(F)cnc2N)CCO3)c1C(F)(F)F` [Example 631, 6-(10-((R)-1-(2-amino-5-fluoropyridin-3-yl)ethyl)-4-fluoro-2-(((2R,7aS)-2-fluorotetrahydro-1H-pyrrolizin-7a(5H)-yl)methoxy)-9,10-dihydro-8H-7-oxa-1,3,6,10-tetraazacyclohepta[de]naphthalen-5-yl)-3-fluoro-4-methyl-5-(trifluoromethyl)pyridin-2-amine], the IC50 was determined as 110 nM in the assay on HPAC cells; 0.741 nM in assay [1]; 0.21 nM in assay [2]; 47.3 nM in the assay with SW620 cells; 113 nM in the assay with H1975 cells; 16.5 nM with SW620 PERK.
On to `Cc1c(F)c(N)nc(-c2nc3c4c(nc(OC[C@@]56CCCN5C[C@]5(CC5(F)F)C6)nc4c2F)N([C@H](C)c2nccnc2N)CCO3)c1C(F)(F)F` [Example 632], for which the concentration for half-maximal inhibition (IC50) stood at 83.4 nM with HPAC cells; 0.379 nM in assay [1]; 0.089 nM in assay [2]; 15.5 nM with SW620 cells; 83.4 nM in the assay with H1975 cells; 6.08 nM in the assay on SW620 PERK.
With `Cc1cc(N)nc(-c2nc3c4c(nc(OC[C@@]56CCCN5C[C@H](F)C6)nc4c2Cl)N([C@H](C)c2cccnc2N)CCO3)c1C(F)(F)F` [Example 633, 6-(10-((R)-1-(2-aminopyridin-3-yl)ethyl)-4-chloro-2-(((2R,7aS)-2-fluorotetrahydro-1H-pyrrolizin-7a(5H)-yl)methoxy)-9,10-dihydro-8H-7-oxa-1,3,6,10-tetraazacyclohepta[de]naphthalen-5-yl)-4-methyl-5-(trifluoromethyl)pyridin-2-amine], the IC50 stood at 77.8 nM in the assay with HPAC cells; 0.416 nM in assay [1]; 0.2 nM in assay [2]; 19.9 nM with SW620 cells; 48.4 nM in the assay with H1975 cells; 23 nM in the assay with SW620 PERK.
